Reference: patent publication US9513294B2, “Megastokes amino-triazolyl-BODIPY compounds and applications to live neuron staining and human serum albumin FA1 drug site probing” (National University of Singapore, priority 2012, dated 2016)
One block for each molecule: values may come before it.

Experiments:
[1] = Absorbance and fluorescence emission spectra (SpectraMax M2); type: physicochemical; details: for λmax Absorp. (nm) / λmax Emission (nm): MKCA compound library; for λmax Absorp. (nm) / λmax Abs. (nm): absorbance maximum; for λmax Emission (nm) / λmax Em. (nm): fluorescence emission maximum; for λmax Abs. (nm) / λmax Em. (nm): MKAC compound library
In short: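 Absorbance and emission maxima measured on a SpectraMax M2 spectrophotometer, which also gave quantum yield data; analysis in GraphPrism.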

[2] = Quantum yield measurements versus Acridine Yellow in EtOH; type: physicochemical; details: for φ (quantum yield): excitation 460 nm; for φ (%): quantum yield
In short: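 Fluorescence quantum yield is relative to Acridine Yellow in EtOH (Φ 0.47), with excitation at 460 nm. Integrated emission at 510–700 nm was corrected for absorbance at the excitation wavelength and for solvent refractive index.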

SMILES: CN(Cc1ccccc1)Cc1cn(-c2ccc3n2[B-](F)(F)[N+]2=C(N4CCCC4)C=CC2=C3c2ccc(NC(=O)CCl)cc2)nn1 [MKCA215-18]
λmax Absorp. (nm) [1]: 461 nm
λmax Emission (nm) [1]: 577 nm
φ (%) ([2]; MKCA compound library): 2.62%

SMILES: COc1cc(OC)cc(-c2cn(-c3ccc4n3[B-](F)(F)[N+]3=C(N5CCCCC5)C=CC3=C4c3ccc(NC(=O)CCl)cc3)nn2)c1 [BDCCA-14]
λmax Absorp. ([1]; BDCCA library, Table 4): 463 nm
λmax Emission ([1]; BDCCA library, Table 4): 589 nm
φ (quantum yield) ([2]; BDCCA library, Table 4): 0.8%

SMILES: CCCCc1cn(-c2ccc3n2[B-](F)(F)[N+]2=C(N4CCCCC4)C=CC2=C3c2ccc(NC(=O)CCl)cc2)nn1 [BDCCA-42]
λmax Absorp. ([1]; BDCCA library, Table 4): 467 nm
λmax Emission ([1]; BDCCA library, Table 4): 577 nm
φ (quantum yield) ([2]; BDCCA library, Table 4): 1.3%

SMILES: CC(=O)Nc1ccc(C2=C3C=CC(NCc4cc(F)cc(F)c4)=[N+]3[B-](F)(F)n3c2ccc3-n2cc(CC3CCCCC3)nn2)cc1 [MKAC412-8]
λmax Abs. (nm) [1]: 467 nm
λmax Em. (nm) [1]: 562 nm
φ (%) ([2]; MKAC compound library): 16.81%

SMILES: CCCCCCCCCCc1cn(-c2ccc3n2[B-](F)(F)[N+]2=C(N4CCCCC4)C=CC2=C3c2ccc(N)cc2)nn1 [BDC-49]
λmax Absorp. ([1]; BDC library, Table 2): 475 nm
λmax Emission ([1]; BDC library, Table 2): 589 nm
φ (quantum yield) ([2]; BDC library, Table 2): 0.12%

SMILES: COc1cccc(-c2cn(-c3ccc4n3[B-](F)(F)[N+]3=C(N5CCCCC5)C=CC3=C4c3ccc(NC(=O)CCl)cc3)nn2)c1 [BDCCA-27]
λmax Absorp. ([1]; BDCCA library, Table 4): 463 nm
λmax Emission ([1]; BDCCA library, Table 4): 552 nm
φ (quantum yield) ([2]; BDCCA library, Table 4): 2.3%

SMILES: CC1CN(C2=[N+]3C(=C(c4ccc(NC(=O)CCl)cc4)c4ccc(-n5cc(C6CC6)nn5)n4[B-]3(F)F)C=C2)CC(C)O1 (stereo not drawn) [MKCA20-4]
λmax Absorp. (nm) [1]: 466 nm
λmax Emission (nm) [1]: 581 nm
φ (%) ([2]; MKCA compound library): 6.11%

SMILES: CCCCc1ccc(-c2cn(-c3ccc4n3[B-](F)(F)[N+]3=C(N5CCCCC5)C=CC3=C4c3ccc(N)cc3)nn2)cc1 [BDC-12]
λmax Absorp. ([1]; BDC library, Table 2): 473 nm
λmax Emission ([1]; BDC library, Table 2): 594 nm
φ (quantum yield) ([2]; BDC library, Table 2): 0.09%

SMILES: CCCC(C)c1cn(-c2ccc3n2[B-](F)(F)[N+]2=C(N4CCCC4)C=CC2=C3c2ccc(N)cc2)nn1 (stereo not drawn) [MK215-3]
λmax Absorp. ([1]; MK library, Table 5): 471 nm
λmax Emission ([1]; MK library, Table 5): 567 nm
φ (quantum yield) ([2]; MK library, Table 5): 0.26%

SMILES: Nc1ccc(C2=C3C=CC(N4CCCCC4)=[N+]3[B-](F)(F)n3c2ccc3-n2cc(-c3ccc(F)cc3F)nn2)cc1 [BDC-26]
λmax Absorp. ([1]; BDC library, Table 2): 473 nm
λmax Emission ([1]; BDC library, Table 2): 585 nm
φ (quantum yield) ([2]; BDC library, Table 2): 0.12%

SMILES: CCCCc1ccc(-c2cn(-c3ccc4n3[B-](F)(F)[N+]3=C(N5CCCCC5)C=CC3=C4c3ccc(NC(=O)CCl)cc3)nn2)cc1 [BDCCA-12]
λmax Absorp. ([1]; BDCCA library, Table 4): 464 nm
λmax Emission ([1]; BDCCA library, Table 4): 552 nm
φ (quantum yield) ([2]; BDCCA library, Table 4): 1.6%

SMILES: COc1cccc(-c2cn(-c3ccc4n3[B-](F)(F)[N+]3=C(N5CCCCC5)C=CC3=C4c3ccc(N)cc3)nn2)c1 [BDC-27]
λmax Absorp. ([1]; BDC library, Table 2): 472 nm
λmax Emission ([1]; BDC library, Table 2): 565 nm
φ (quantum yield) ([2]; BDC library, Table 2): 0.17%

Further lines, results first:

λmax Absorp. ([1]; MK library, Table 5): 474 nm
λmax Emission ([1]; MK library, Table 5): 562 nm
φ (quantum yield) ([2]; MK library, Table 5): 2.36%
SMILES: Cc1ccccc1CNC1=[N+]2C(=C(c3ccc(N)cc3)c3ccc(-n4cc(CC(C)C)nn4)n3[B-]2(F)F)C=C1 [MK101-43]

λmax Absorp. ([1]; MK library, Table 5): 479 nm
λmax Emission ([1]; MK library, Table 5): 579 nm
φ (quantum yield) ([2]; MK library, Table 5): 0.16%
SMILES: CCCC(C)c1cn(-c2ccc3n2[B-](F)(F)[N+]2=C(N4CCc5ccccc5C4)C=CC2=C3c2ccc(N)cc2)nn1 (stereo not drawn) [MK66-3]

λmax Absorp. ([1]; MK library, Table 5): 473 nm
λmax Emission ([1]; MK library, Table 5): 563 nm
φ (quantum yield) ([2]; MK library, Table 5): 1.02%
SMILES: CN(Cc1ccccc1)Cc1cn(-c2ccc3n2[B-](F)(F)[N+]2=C(NCc4cc(F)cc(F)c4)C=CC2=C3c2ccc(N)cc2)nn1 [MK412-18]

λmax Absorp. ([1]; MK library, Table 5): 476 nm
λmax Emission ([1]; MK library, Table 5): 566 nm
φ (quantum yield) ([2]; MK library, Table 5): 0.34%
SMILES: CN(Cc1ccccc1)C1=[N+]2C(=C(c3ccc(N)cc3)c3ccc(-n4cc(C5CC5)nn4)n3[B-]2(F)F)C=C1 [MK195-4]

λmax Abs. (nm) [1]: 464 nm
λmax Em. (nm) [1]: 562 nm
φ (%) ([2]; MKAC compound library): 21.57%
SMILES: CCCC(C)c1cn(-c2ccc3n2[B-](F)(F)[N+]2=C(NCc4ccccc4C)C=CC2=C3c2ccc(NC(C)=O)cc2)nn1 (stereo not drawn) [MKA101-3]

λmax Absorp. ([1]; MK library, Table 5): 480 nm
λmax Emission ([1]; MK library, Table 5): 585 nm
φ (quantum yield) ([2]; MK library, Table 5): 0.13%
SMILES: Nc1ccc(C2=C3C=CC(N4CCc5ccccc5C4)=[N+]3[B-](F)(F)n3c2ccc3-n2cc(CCc3ccccc3)nn2)cc1 [MK66-19]

λmax Absorp. ([1]; MK library, Table 5): 472 nm
λmax Emission ([1]; MK library, Table 5): 568 nm
φ (quantum yield) ([2]; MK library, Table 5): 1.96%
SMILES: CCOc1ccccc1CNC1=[N+]2C(=C(c3ccc(N)cc3)c3ccc(-n4cc(CCc5ccccc5)nn4)n3[B-]2(F)F)C=C1 [MK103-19]

λmax Absorp. ([1]; MK library, Table 5): 474 nm
λmax Emission ([1]; MK library, Table 5): 566 nm
φ (quantum yield) ([2]; MK library, Table 5): 0.28%
SMILES: COc1ccc(OC)c(CNC2=[N+]3C(=C(c4ccc(N)cc4)c4ccc(-n5cc(C6CC6)nn5)n4[B-]3(F)F)C=C2)c1 [MK181-4]
